Results from the NIST ThermoML archive (doi:10.1016/j.fluid.2009.06.008).
Numbers after ± are expanded uncertainties.

Test: mn = molality of the nth substance listed, in mol/kg
Details: 101 kPa, Liquid; for viscosity: Capillary tube (Ostwald / Ubbelohde) method; for mass density: Vibrating tube method

O=C[C@H](O)[C@@H](O)[C@H](O)[C@H](O)CO [D-glucose] + O
Details | mass density [kg/m3] | viscosity [mPa·s]
278.15 K, m1 = 0.2 | 1019.65 ± 0.074 | 1.694 ± 0.016
278.15 K, m1 = 0.4 | 1031.6 ± 0.078 | 1.873 ± 0.018
278.15 K, m1 = 0.6 | 1043.55 ± 0.082 | 2.074 ± 0.02
278.15 K, m1 = 0.8 | 1055.51 ± 0.087 | 2.3 ± 0.022
278.15 K, m1 = 1 | 1067.46 ± 0.092 | 2.536 ± 0.024
278.15 K, m1 = 1.2 | 1079.41 ± 0.098 | 2.802 ± 0.027
283.15 K, m1 = 0.2 | 1017.74 ± 0.074 | 1.451 ± 0.014
283.15 K, m1 = 0.4 | 1029.58 ± 0.077 | 1.599 ± 0.015
283.15 K, m1 = 0.6 | 1041.42 ± 0.081 | 1.766 ± 0.017
283.15 K, m1 = 0.8 | 1053.25 ± 0.086 | 1.953 ± 0.019
283.15 K, m1 = 1 | 1065.09 ± 0.091 | 2.147 ± 0.021
283.15 K, m1 = 1.2 | 1076.93 ± 0.097 | 2.374 ± 0.023
288.15 K, m1 = 0.2 | 1015.54 ± 0.073 | 1.258 ± 0.012
288.15 K, m1 = 0.4 | 1027.28 ± 0.076 | 1.383 ± 0.013
288.15 K, m1 = 0.6 | 1039.02 ± 0.08 | 1.524 ± 0.014
288.15 K, m1 = 0.8 | 1050.75 ± 0.085 | 1.682 ± 0.016
288.15 K, m1 = 1 | 1062.49 ± 0.09 | 1.849 ± 0.017
288.15 K, m1 = 1.2 | 1074.22 ± 0.096 | 2.029 ± 0.019
293.15 K, m1 = 0.2 | 1013.09 ± 0.072 | 1.104 ± 0.01
293.15 K, m1 = 0.4 | 1024.74 ± 0.075 | 1.21 ± 0.011
293.15 K, m1 = 0.6 | 1036.38 ± 0.079 | 1.329 ± 0.012
293.15 K, m1 = 0.8 | 1048.03 ± 0.084 | 1.46 ± 0.014
293.15 K, m1 = 1 | 1059.67 ± 0.089 | 1.619 ± 0.015
293.15 K, m1 = 1.2 | 1071.32 ± 0.095 | 1.754 ± 0.016
298.15 K, m1 = 0.2 | 1010.39 ± 0.077 | 0.9748 ± 0.0087
298.15 K, m1 = 0.4 | 1023.11 ± 0.078 | 1.066 ± 0.0096
298.15 K, m1 = 0.6 | 1035.26 ± 0.08 | 1.166 ± 0.011
298.15 K, m1 = 0.8 | 1046.85 ± 0.083 | 1.272 ± 0.012
298.15 K, m1 = 1 | 1057.94 ± 0.086 | 1.395 ± 0.013
298.15 K, m1 = 1.2 | 1068.55 ± 0.09 | 1.528 ± 0.014
303.15 K, m1 = 0.2 | – | 0.8685 ± 0.0077
303.15 K, m1 = 0.4 | 1018.93 ± 0.074 | 0.9469 ± 0.0084
303.15 K, m1 = 0.6 | 1030.42 ± 0.078 | 1.035 ± 0.0092
303.15 K, m1 = 0.8 | 1041.92 ± 0.083 | 1.132 ± 0.01
303.15 K, m1 = 1 | 1053.41 ± 0.087 | 1.236 ± 0.011
303.15 K, m1 = 1.2 | 1064.9 ± 0.093 | 1.343 ± 0.012
308.15 K, m1 = 0.2 | 1004.38 ± 0.07 | 0.7811 ± 0.007
308.15 K, m1 = 0.4 | 1015.81 ± 0.073 | 0.8496 ± 0.0075
308.15 K, m1 = 0.6 | 1027.24 ± 0.076 | 0.9264 ± 0.0083
308.15 K, m1 = 0.8 | 1038.67 ± 0.081 | 1.01 ± 0.0091
308.15 K, m1 = 1 | 1050.1 ± 0.086 | 1.096 ± 0.0099
308.15 K, m1 = 1.2 | 1061.53 ± 0.091 | 1.194 ± 0.011
